# Assay results published in publication PMC9525273 (Nature Communications, 2022).
# Values joined by “and” are separate entries in the source; they are usually repeats but may differ in a detail not shown here. Equal entries are not always repeated. Where two headings read alike, the source gives them in different places.
# Experiments:
# [1] = target: T1, PfATP4^G358S (membranes from Dd2-Polδ-PfATP4^G358S parasites) (Plasmodium falciparum, UniProt A0A143ZZK9, G358S); experiment: Membrane ATPase assay, ATP4-associated (Na+-dependent) ATPase activity; type: biochemical; set-up: IC50 for inhibition of ATP4-associated ATPase activity, MEAN / IC50 for inhibition of ATP4-associated ATPase activity: unit: nM; conditions: for IC50 for ATP4-associated ATPase activity: membranes from Dd2-Polδ-PfATP4G358S, mean ± SEM; for PfATP4-associated ATPase activity (% of control): Dd2-Polδ-PfATP4G358S
# T1 sequence (A0A143ZZK9 1-1264 G358S): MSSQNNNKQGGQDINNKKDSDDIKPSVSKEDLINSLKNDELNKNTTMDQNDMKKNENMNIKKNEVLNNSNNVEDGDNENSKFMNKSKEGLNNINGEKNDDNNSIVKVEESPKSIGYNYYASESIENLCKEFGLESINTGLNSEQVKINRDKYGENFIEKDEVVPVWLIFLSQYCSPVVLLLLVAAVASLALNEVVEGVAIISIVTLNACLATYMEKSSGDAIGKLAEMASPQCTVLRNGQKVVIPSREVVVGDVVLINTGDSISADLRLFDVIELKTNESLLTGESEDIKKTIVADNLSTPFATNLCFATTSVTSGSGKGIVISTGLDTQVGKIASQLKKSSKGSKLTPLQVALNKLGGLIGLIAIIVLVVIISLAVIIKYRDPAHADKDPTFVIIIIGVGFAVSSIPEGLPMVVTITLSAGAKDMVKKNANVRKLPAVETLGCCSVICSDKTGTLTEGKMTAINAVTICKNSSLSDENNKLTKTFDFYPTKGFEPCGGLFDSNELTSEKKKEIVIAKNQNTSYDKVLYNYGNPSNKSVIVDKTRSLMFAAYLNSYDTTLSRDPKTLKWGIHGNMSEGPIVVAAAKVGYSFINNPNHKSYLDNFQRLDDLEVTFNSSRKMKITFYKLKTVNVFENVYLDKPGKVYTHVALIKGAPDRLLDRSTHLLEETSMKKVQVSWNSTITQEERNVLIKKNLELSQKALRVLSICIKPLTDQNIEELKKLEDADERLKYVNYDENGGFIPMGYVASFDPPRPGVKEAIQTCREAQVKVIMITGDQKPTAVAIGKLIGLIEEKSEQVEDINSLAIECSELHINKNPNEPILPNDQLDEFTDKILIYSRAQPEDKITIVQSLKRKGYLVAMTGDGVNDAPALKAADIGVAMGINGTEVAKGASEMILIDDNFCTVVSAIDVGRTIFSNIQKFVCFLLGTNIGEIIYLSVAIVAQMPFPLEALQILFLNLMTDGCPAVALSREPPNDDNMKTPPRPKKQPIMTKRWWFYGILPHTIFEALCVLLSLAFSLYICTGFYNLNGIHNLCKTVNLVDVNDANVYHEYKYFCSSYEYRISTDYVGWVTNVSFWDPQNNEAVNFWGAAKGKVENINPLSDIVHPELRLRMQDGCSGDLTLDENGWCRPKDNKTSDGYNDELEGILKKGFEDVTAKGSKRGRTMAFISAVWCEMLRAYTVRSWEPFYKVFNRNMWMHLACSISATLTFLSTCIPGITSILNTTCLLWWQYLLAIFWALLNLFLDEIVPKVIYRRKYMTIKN
# Description: Membranes from isolated P. falciparum or extracellular T. gondii parasites were prepared by lysing parasites in ice-cold deionized water containing a 1:500 dilution of Protease Inhibitor Cocktail Set III (Merck Millipore), then washing the membrane preparation three times in ice-cold deionized water (with protease inhibitors present for the first two washes)[15]. Protein concentrations in the membrane preparations were measured using a Bradford assay. The PiColorLock Gold Phosphate Detection System (Innova Biosciences) was used to measure the production of Pi from hydrolysis of ATP[15]. Membrane preparations were diluted in either a high Na^+ solution (yielding final conditions in the reactions of 150 mM NaCl, 20 mM KCl, 2 mM MgCl2, 50 mM Tris, pH 7.2) or a Na^+-free solution (yielding final conditions of 150 mM choline chloride, 20 mM KCl, 2 mM MgCl2, 50 mM Tris, pH 7.2) to achieve a total protein concentration of 50 μg/mL. […] The reactions were performed at 37 °C, and were initiated by the addition of 1 mM ATP (Na2ATP۰3H2O; MP Biomedicals) and terminated 10 min later by adding 100 μL of reaction mixture (in duplicate) to 25 μL “Gold mix” in a 96-well plate. […] Background values (averaged from wells containing all components, but to which ATP was not added until after the membrane was exposed to Gold mix) were subtracted from the data. For each treatment, the ATPase activity associated with the (Na^+-dependent) PfATP4 and TgATP4 proteins was calculated by subtracting data obtained in the low Na^+ condition (containing only the 2 mM Na^+ introduced on addition of 1 mM Na2ATP) from that obtained in the high Na^+ condition.
# [2] = tested on: NF54^WT parasites; experiment: microbe, parasite or virus in culture; type: cell-based, Plasmodium falciparum; conditions: for FC (IC50) / FC (IC90): reference line
# Description: For the NF54-based lines and Dd2-B2-PfATP4^G358S and its parent, assays were initiated with cultures containing predominantly ring-stage parasites with a parasitaemia of 0.3% and a haematocrit of 1%. All assays using NF54 were performed in culture media containing 10% O + human serum. The duration of the assays was 72 h and the concentration of DMSO was <0.5% (v/v). Serial dilutions of the test compounds were performed using a Tecan D300e digital dispenser, with parasite cultures added manually. Parasite survival was assessed by flow cytometry on an Intellicyt iQue3 (Essen Bioscience), with 1× SYBR Green I (Invitrogen) and 200 nM MitoTracker Deep Red FM (Invitrogen) used to stain the nucleus and the mitochondria in live parasites, respectively. The gating strategy used to quantify parasite survival, performed using FlowJo version 10 (FlowJo LLC.), is illustrated in Supplementary Fig. 9. IC50 and IC90 values were calculated by linear interpolation of the dose-response data.
# [3] = NF54WT parasites, individual experiments, read-out: IC90 values
# [4] = NF54WT, single experiments, source data of Fig. 2 (nM in Supplementary Table 5), read-out: IC50 values
# [5] = Plasmodium falciparum, NF54, NF54WT parasites, individual experiments, read-out: IC90 values
# [6] = Plasmodium falciparum, NF54, NF54WT parasites, mean of the experiments, read-out: IC90 values, MEAN
# [7] = Plasmodium falciparum, NF54, NF54WT, MEAN, source data of Fig. 2, read-out: IC50 values, MEAN
# [8] = Plasmodium falciparum, NF54, NF54WT, single experiments, source data of Fig. 2 (nM in Supplementary Table 5), read-out: IC50 values
structure (smiles),measurement,setting,value
N#Cc1cc(NC(=O)[C@H]2c3ccccc3C(=O)N(CC(F)(F)F)[C@@H]2c2cccnc2)ccc1F [(+)-SJ733],IC50 for inhibition of ATP4-associated ATPase activity,"[1]; Dd2-Polδ-PfATP4G358S membranes, single experiments, source data of Table 1 (nM there)",816 and 877 and 793
same,IC50 for ATP4-associated ATPase activity,[1],829 ± 25 (3) (P = 5 × 10^−6) nM
same,IC90,[2]; [3],171 nM and 165 nM and 176 nM
same,FC (IC50),[2]; NF54WT,1.0 fold
same,FC (IC90),[2]; NF54WT,1.0 fold
same,IC50,[2]; [4],89.8 nM and 87.1 nM and 107 nM
same,IC90,[2]; [5],141 nM
same,IC90,[2]; [6],164 nM
same,IC50,[2]; [7],93.8 nM
same,IC50,[2]; [8],91.6 nM
N#Cc1cc(NC(=O)[C@H]2c3ccccc3C(=O)N(CC(F)(F)F)[C@@H]2c2cccnc2)ccc1F [(+)SJ733],PfATP4-associated ATPase activity (% of control),"[1]; [(+)SJ733] 0.122 nM, MEAN",85.0 % of control
same,PfATP4-associated ATPase activity (% of control),"[1]; [(+)SJ733] 0.122 nM, single experiments, 0.000122 µM",115.8 % of control and 74.1 % of control and 65.2 % of control
same,PfATP4-associated ATPase activity (% of control),"[1]; [(+)SJ733] 0.244 nM, MEAN",125.3 % of control
same,PfATP4-associated ATPase activity (% of control),"[1]; [(+)SJ733] 0.244 nM, single experiments, 0.000244 µM",139.0 % of control and 119.0 % of control and 117.8 % of control
same,PfATP4-associated ATPase activity (% of control),"[1]; [(+)SJ733] 0.5 nM, MEAN",90.2 % of control
same,PfATP4-associated ATPase activity (% of control),"[1]; [(+)SJ733] 0.5 nM, single experiments, 0.0005 µM",95.6 % of control and 76.4 % of control and 98.6 % of control
same,PfATP4-associated ATPase activity (% of control),"[1]; [(+)SJ733] 1.0 nM, MEAN",98.3 % of control
same,PfATP4-associated ATPase activity (% of control),"[1]; [(+)SJ733] 2.0 nM, MEAN",109.4 % of control
same,PfATP4-associated ATPase activity (% of control),"[1]; [(+)SJ733] 2.0 nM, single experiments, 0.002 µM",114.6 % of control and 135.7 % of control and 77.8 % of control
same,PfATP4-associated ATPase activity (% of control),"[1]; [(+)SJ733] 3.9 nM, MEAN",81.9 % of control
same,PfATP4-associated ATPase activity (% of control),"[1]; [(+)SJ733] 3.9 nM, single experiments, 0.0039 µM",93.0 % of control and 73.2 % of control and 79.5 % of control
same,PfATP4-associated ATPase activity (% of control),"[1]; [(+)SJ733] 7.8 nM, MEAN",84.3 % of control
same,PfATP4-associated ATPase activity (% of control),"[1]; [(+)SJ733] 7.8 nM, single experiments, 0.0078 µM",82.0 % of control and 99.5 % of control and 71.2 % of control
same,PfATP4-associated ATPase activity (% of control),"[1]; [(+)SJ733] 15.6 nM, MEAN",119.8 % of control
same,PfATP4-associated ATPase activity (% of control),"[1]; [(+)SJ733] 15.6 nM, single experiments, 0.0156 µM",88.8 % of control and 152.3 % of control and 118.3 % of control
same,PfATP4-associated ATPase activity (% of control),"[1]; [(+)SJ733] 31.3 nM, MEAN",94.2 % of control
same,PfATP4-associated ATPase activity (% of control),"[1]; [(+)SJ733] 31.3 nM, single experiments, 0.0313 µM",92.0 % of control and 104.2 % of control and 86.4 % of control
same,PfATP4-associated ATPase activity (% of control),"[1]; [(+)SJ733] 62.5 nM, MEAN",103.2 % of control
same,PfATP4-associated ATPase activity (% of control),"[1]; [(+)SJ733] 62.5 nM, single experiments, 0.0625 µM",102.4 % of control and 79.6 % of control and 127.6 % of control
same,PfATP4-associated ATPase activity (% of control),"[1]; [(+)SJ733] 250 nM, MEAN",82.2 % of control
same,PfATP4-associated ATPase activity (% of control),"[1]; [(+)SJ733] 250 nM, single experiments, 0.25 µM",91.0 % of control and 86.1 % of control and 69.4 % of control
same,PfATP4-associated ATPase activity (% of control),"[1]; [(+)SJ733] 500 nM, MEAN",53.9 % of control
same,PfATP4-associated ATPase activity (% of control),"[1]; [(+)SJ733] 1000 nM, MEAN",56.2 % of control
same,PfATP4-associated ATPase activity (% of control),"[1]; [(+)SJ733] 2000 nM, MEAN",20.4 % of control
same,PfATP4-associated ATPase activity (% of control),"[1]; [(+)SJ733] 4000 nM, MEAN",-1.2 % of control
same,PfATP4-associated ATPase activity (% of control),"[1]; [(+)SJ733] 8000 nM, MEAN",-15.8 % of control
C[C@H]1Cc2c([nH]c3cc(Cl)c(F)cc23)[C@@]2(N1)C(=O)Nc1ccc(Cl)cc12 [Cipargamin],"IC50 for inhibition of ATP4-associated ATPase activity, MEAN","[1]; Dd2-Polδ-PfATP4G358S membranes, MEAN, source data of Table 1 (nM there)",99.4
same,IC50 for ATP4-associated ATPase activity,[1],99 ± 21 (4) (P = 0.004) nM
same,IC90,[2]; [3],4.6 nM and 3.5 nM
same,FC (IC50),[2]; NF54WT,1.0 fold
same,FC (IC90),[2]; NF54WT,1.0 fold
same,IC50,[2]; [4],2.8 nM and 2.5 nM and 2.6 nM
same,IC90,[2]; [5],3.6 nM
same,IC90,[2]; [6],3.8 nM
same,IC50,[2]; [7],2.64 nM
same,IC50,[2]; [8],2.7 nM
C[C@H]1[C@@H](O)O[C@@H]2O[C@@]3(C)CC[C@H]4[C@H](C)CC[C@@H]1[C@@]24OO3 [Dihydroartemisinin],IC90,[2]; [3],1.85 nM and 1.87 nM and 2.79 nM
same,FC (IC50),[2]; NF54WT,1.0 fold
same,FC (IC90),[2]; NF54WT,1.0 fold
same,IC90,[2]; [5],2.83 nM
same,IC90,[2]; [6],2.3 nM
same,IC50,"[2]; Plasmodium falciparum, NF54, NF54WT, 10% human serum, read-out: IC50 ± SEM",0.8 ± 0.1 nM
same,IC50,"[2]; Plasmodium falciparum, NF54, read-out: Dihydroartemisinin IC50 values, NF54WT, MEAN",0.84 nM
same,IC50,"[2]; read-out: Dihydroartemisinin IC50 values, NF54WT, single experiments",0.78 nM and 0.71 nM and 0.86 nM
